“Also recorded” adds a separate entry of the source.
Tests used:
Type in all cases: physicochemical
[1] = Comparison of the amount of change in related substances of the compounds; settings: for increase in the amount of related substances: open state at room temperature for 3 days
Procedure: In order to evaluate the amount of change in the related substances of Example 12, the composition of Example 12 was placed in an accelerated condition chamber ([…], 75%±5), and the amount of related substance produced was measured for 6 months. For the measurement of the amount of related substances produced, the composition of Example 12 was pretreated and then tested according to the liquid chromatography method of the general test method of the Korean Pharmacopoeia to determine peak areas of the produced related substances (individual related substance 0.2% or less, total related substances 1.0%, measuring equipment: HPLC LC-2030C_Shimadzu). In Table 12, the amount of related substances produced is expressed in %. In addition, FIG. 3 is a result of measuring the related substance at 28 minutes under the accelerated condition, and the reference value is 0.2%.
In order to evaluate the amount of change in related substances of the compounds according to Comparative Examples and Examples, each compound was stored in an open state at room temperature for 3 days, and then the amount of related substances produced was measured in the same manner as in Experimental Example 3 and the results are shown in FIG. 5.
In addition, changes in the amount of related substances produced according to temperature and storage period are shown in FIGS. 6 and 7 for the compounds according to Examples 13 and 14.

[2] = Evaluation of change in moisture content (Karl Fischer); settings: open state, room temperature (20 to 25° C., 50% or less), after 3 days versus initial
Source text: (§1) In order to evaluate the stability of the compound according to the present invention, an alkylcarbamoyl naphthalenyloxy octenoyl hydroxyamide compound was used in Comparative Example 1, an alkyl carbamoyl naphthalenyloxy octenoyl hydroxyamide tartrate was used in Example 13 and alkylcarbamoyl naphthalenyloxy octenoyl hydroxyamide phosphate was used in Example 14. As alkylcarbamoyl naphthalenyloxy octenoyl hydroxyamide, (E)-N1-(3-(dimethylamino)propyl)-N8-hydroxy-2-((naphthalen-1-yloxy)methyl)-2-octenediamide compound was used. Evaluation of stability was conducted by observing the change with storage time under room temperature (20-25° C., 50% or less), long-term (25±2° C. and 60±5% RH), accelerated (40±2° C. and 75±5% RH) and severe (60±2° C.) conditions.
In order to evaluate the change in moisture content, the compounds according to Examples and Comparative Examples were stored in an open state at room temperature (20 to 25° C., 50% or less), and the change was measured by the difference between the initial moisture content and the moisture content after 3 days, and the results are shown in FIG. 4. Moisture content was measured according to the volumetric titration method among methods of determining the water content (Karl Fischer method) of the general test methods of the Korean Pharmacopoeia (measurement equipment: 701KF_Metrohm).

[3] = Evaluation of change in content on storage (HPLC)
Source text: as §1
In order to evaluate the change in the content of the compounds according to Examples, each compound was stored in an open state or in a polyethylene bottle packaging (silica gel added) to measure the change in content. For measurement of content, compounds of Comparative Examples and Examples were pretreated and then the solutions were tested according to the liquid chromatography method of the general test methods of the Korean Pharmacopoeia to determine the peak area of CG200745 (measurement equipment: HPLC LC-2030C_Shimadzu). The content standard is to contain CG200745 in an amount corresponding to 95.0-105.5% of the indicated amount according to the standards and test methods of the present applicant.
The results measured in the open state are shown in Table 14 below, and the results measured in the bottle packaging are shown in Table 15 below.

[4] = Evaluation of change in appearance on storage; settings: for change in appearance: open state storage, all conditions
Source text: as §1
In order to evaluate the change in appearance of the compounds according to Comparative Examples and Examples, each compound was stored in an open state according to the conditions shown in Table 13 below, and then the change in appearance was observed.

[5] = bottle packaging, 1 day, Accelerated
[6] = bottle packaging, 1 day, Long-term
[7] = bottle packaging, 1 day, Room temperature
[8] = bottle packaging, 1 day, Severe
[9] = bottle packaging, 3 days, Accelerated
[10] = bottle packaging, 3 days, Long-term
[11] = bottle packaging, 3 days, Room temperature
[12] = bottle packaging, 7 days, Accelerated
[13] = bottle packaging, 7 days, Long-term
[14] = bottle packaging, 7 days, Room temperature
[15] = polyethylene bottle packaging (silica gel added), Initial
[16] = open state, 1 day, Accelerated (40±2° C., 75±5% RH)
[17] = open state, 1 day, Long-term (25±2° C., 60±5% RH)
[18] = open state, 7 days, Room temperature (20-25° C., 50% or less)

## CN(C)CCCNC(=O)/C(=C/CCCCC(=O)NO)COc1cccc2ccccc12 [Comparative Example 1, (E)-N1-(3-(dimethylamino)propyl)-N8-hydroxy-2-((naphthalen-1-yloxy)methyl)-2-octenediamide, reference compound]
[1]
  increase in the amount of related substances: about 10%
[2]
  increase in moisture content: about 3%
[3]; [5]
  content of CG200745: 89.1%
[3]; [6]
  content of CG200745: 99.1%
[3]; [7]
  content of CG200745: 99.3%
[3]; [8]
  content of CG200745: 101.2%
[3]; [9]
  content of CG200745: 84.0%
[3]; [10]
  content of CG200745: 84.0%
[3]; [11]
  content of CG200745: 99.5%
[3]; [12]
  content of CG200745: 78.5%
[3]; [13]
  content of CG200745: 78.5%
[3]; [14]
  content of CG200745: 99.4%
[3]; open state, 1 day, Accelerated, listed as Comp. Ex. 1
  content of CG200745: 92.3%
[3]; open state, 1 day, Long-term, listed as Comp. Ex. 1
  content of CG200745: 99.9%
[3]; open state, 1 day, Room temperature, listed as Comp. Ex. 1
  content of CG200745: 101.0%
[3]; open state, 1 day, Severe, listed as Comp. Ex. 1
  content of CG200745: 101.1%
[3]; open state, 3 days, Room temperature, listed as Comp. Ex. 1
  content of CG200745: 101.9%
[3]; open state, 3 days, Severe, listed as Comp. Ex. 1
  content of CG200745: 97.2%
[3]; open state, 7 days, Room temperature, listed as Comp. Ex. 1
  content of CG200745: 100.1%
[3]; open state, 7 days, Severe, listed as Comp. Ex. 1
  content of CG200745: 89.1%
[3]; open state, Initial, listed as Comp. Ex. 1
  content of CG200745: 98.9%
[3]; [15]
  content of CG200745: 98.9%
[4]; Initial, listed as Comp. Ex. 1
  appearance: Foam
[4]
  change in appearance: changed from a foam to a highly viscous liquid or gel
[4]; [16]
  appearance: Gel-like
[4]; [17]
  appearance: Gel-like
[4]; open state, 1 day, Room temperature (20-25° C., 50% or less), listed as Comp. Ex. 1
  appearance: Gel-like
[4]; open state, 1 day, Severe (60±2° C.), listed as Comp. Ex. 1
  appearance: Gel-like

## CN(C)CCCNC(=O)/C(=C/CCCCC(=O)NO)COc1cccc2ccccc12 [Example 13, (E)-N1-(3-(dimethylamino)propyl)-N8-hydroxy-2-((naphthalen-1-yloxy)methyl)-2-octenediamide]
[1]; FIG. 6
  amount of related substances produced according to storage temperature: maintained within a certain range at a relatively low temperature
[1]
  increase in the amount of related substances: 0.05%
[2]
  increase in moisture content: 2%
[3]; open state, 1 day, Accelerated, listed as Ex. 13
  content of CG200745: 104.6%
[3]; open state, 1 day, Long-term, listed as Ex. 13
  content of CG200745: 104.3%
[3]; open state, 1 day, Room temperature, listed as Ex. 13
  content of CG200745: 103.4%
[3]; open state, 1 day, Severe, listed as Ex. 13
  content of CG200745: 103.3%
[3]; open state, 3 days, Accelerated
  content of CG200745: 102.3%
[3]; open state, 3 days, Long-term
  content of CG200745: 102.6%
[3]; open state, 3 days, Room temperature, listed as Ex. 13
  content of CG200745: 102.6%
[3]; open state, 3 days, Severe, listed as Ex. 13
  content of CG200745: 99.6%
[3]; open state, 7 days, Accelerated
  content of CG200745: 100.7%
[3]; open state, 7 days, Long-term
  content of CG200745: 99.4%
[3]; open state, 7 days, Room temperature, listed as Ex. 13
  content of CG200745: 100.0%
[3]; open state, 7 days, Severe, listed as Ex. 13
  content of CG200745: 102.2%
[3]; open state, Initial, listed as Ex. 13
  content of CG200745: 99.5%
[3]; under the room temperature condition
  content on storage: maintained at a certain level
[4]; Initial, listed as Ex. 13
  appearance: Powder
[4]; [16]
  appearance: Gel-like
[4]; [17]
  appearance: Gel-like
[4]; open state, 1 day, Room temperature (20-25° C., 50% or less), listed as Ex. 13
  appearance: Powder
[4]; open state, 1 day, Severe (60±2° C.), listed as Ex. 13
  appearance: Powder
[4]; [18]
  appearance: Powder
[4]; open state, 7 days, Severe (60±2° C.), listed as Ex. 13
  appearance: Powder; also recorded: Discoloration

## CN(C)CCCNC(=O)/C(=C/CCCCC(=O)NO)COc1cccc2ccccc12.O=P(O)(O)O [Example 14, (E)-N1-(3-(dimethylamino)propyl)-N8-hydroxy-2-((naphthalen-1-yloxy)methyl)-2-octenediamide phosphate]
[1]
  increase in the amount of related substances: 0.02%
[1]; regardless of the storage temperature and period (FIG. 7)
  amount of related substances produced: about 0.22%
[2]
  increase in moisture content: about 0.01%
[3]; all packaging conditions, heating, humidity
  content on storage: kept constant regardless of packaging conditions, heating, and humidity
[3]; [5]
  content of CG200745: 101.2%
[3]; [6]
  content of CG200745: 103.5%
[3]; [7]
  content of CG200745: 98.6%
[3]; [8]
  content of CG200745: 101.6%
[3]; [9]
  content of CG200745: 100.1%
[3]; [10]
  content of CG200745: 99.9%
[3]; [11]
  content of CG200745: 98.8%
[3]; bottle packaging, 3 days, Severe
  content of CG200745: 100.4%
[3]; [12]
  content of CG200745: 101.1%
[3]; [13]
  content of CG200745: 100.9%
[3]; [14]
  content of CG200745: 99.3%
[3]; bottle packaging, 7 days, Severe
  content of CG200745: 101.4%
[3]; [15]
  content of CG200745: 99.5%
[4]; Initial
  appearance: Powder
[4]
  change in appearance: remained constant regardless of the condition
[4]; [16]
  appearance: Powder
[4]; [17]
  appearance: Powder
[4]; open state, 1 day, Room temperature (20-25° C., 50% or less)
  appearance: Powder
[4]; open state, 1 day, Severe (60±2° C.)
  appearance: Powder
[4]; open state, 7 days, Accelerated (40±2° C., 75±5% RH)
  appearance: Powder
[4]; open state, 7 days, Long-term (25±2° C., 60±5% RH)
  appearance: Powder
[4]; [18]
  appearance: Powder
[4]; open state, 7 days, Severe (60±2° C.)
  appearance: Powder

From patent US20210346321A1, “PHARMACEUTICAL COMPOSITION CONTAINING ALKYL CARBAMOYL NAPHTHALENYLOXY OCTENOYL HYDROXYAMIDE PHOSPHATE, TARTRATE OR COMBINATION THEREOF, AND PREPARATION METHOD THEREFOR” (CRYSTALGENOMICS, INC., priority 2018, published 2021)
